# According to patent US7262297B2, “Diaminopyrroloquinazolines compounds as protein tyrosine phosphatase inhibitors” (Hoffmann-La Roche Inc., priority 2003, dated 2007):
# Molecular target: T1, Human PTP1B (1-321) (Homo sapiens, UniProt P18031)
# T1 construct: Human PTP1B (1-321) was cloned from a human cDNA library; made in house; host or cells: E. coli
# T1 sequence (P18031 1-321): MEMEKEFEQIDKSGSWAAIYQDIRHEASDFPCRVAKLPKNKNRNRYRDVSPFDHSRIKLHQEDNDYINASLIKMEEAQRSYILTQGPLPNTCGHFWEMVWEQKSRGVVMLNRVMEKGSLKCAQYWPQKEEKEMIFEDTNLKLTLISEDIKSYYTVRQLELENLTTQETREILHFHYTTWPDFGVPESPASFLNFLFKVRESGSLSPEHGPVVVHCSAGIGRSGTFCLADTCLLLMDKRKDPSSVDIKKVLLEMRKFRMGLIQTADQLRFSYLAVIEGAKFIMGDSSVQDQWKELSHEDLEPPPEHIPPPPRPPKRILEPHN
# Assay: In vitro inhibition of PTP1B (PTPase assay, Malachite Green / DiFMUP)
# Type: biochemical
# Conditions: read-out: IC50 (μM), PTP1B inhibitory activity
# Method: Human PTP1B (1-321) was cloned from a human cDNA library using conventional molecular biology techniques. The cDNA sequence was identical to the published human PTP1B sequence (Accession number M33689). The protein was expressed and purified from E. coli as described by Barford D. et.al, J. Mol Biol (1994) 239,726-730).
# The measurement of PTPase activity was carried out using one of two methods:
# The first method for the measurement of PTP1B inhibitory activity a tyrosine phosphorylated peptide based on the amino acid sequence of insulin receptor tyrosine autophosphorylation site 1146 (TRDI(pY)E) was used as substrate. The reaction conditions were as follows:
# PTP1B (0.5-2nM ) was incubated with compound for 15 min in buffer containing 37.5 mM Bis-Tris buffer pH 6.2, 140 mMNaCl, 0.05% BSA and 2 mM DTT. The reaction was started by the addition of 50 μM substrate. After 20 min at room temperature (22-25° C.) the reaction was stopped with KOH and the amount of free phosphate measured using Malachite Green as previously described. (Harder et al. 1994 Biochem J. 298; 395).
# The second method was used for the measurement of general PTPase inhibitory activity across a panel of PTPases the substrate (6,8-difluoro-4-methylumbelliferyl phosphate (DiFMUP; from Molecular Probes) was used at the Km for each enzyme. The buffer conditions were identical as in the Malachite Green assay. The reaction was stopped with KOH. In this case the dephosphoryated product becomes fluorescent and the fluorescence read. (Excitiation: […]/Emmission: 460 nM).
row,IC50 [µM],SMILES
1,24.1,"Nc1cccc(-c2cc3nc(N)nc(N)c3c3cc[nH]c23)c1 [Example 8, 6-(3-Amino-phenyl)-7H-pyrrolo[3,2-f]quinazoline-1,3-diamine]"
2,23.8,"CCOc1cccc(-c2cc3nc(N)nc(N)c3c3cc[nH]c23)c1 [Example 2, 6-(3-Ethoxy-phenyl)-7H-pyrrolo[3,2-f]quinazoline-1,3-diamine]"
3,89.5,"Nc1nc(N)c2c(cc(-c3cccc([N+](=O)[O-])c3)c3[nH]ccc32)n1 [Example 4, 6-(3-Nitro-phenyl)-7H-pyrrolo[3,2-f]quinazoline-1,3-diamine]"
4,29.2,"Nc1nc(N)c2c(cc(-c3ccc(Cl)s3)c3[nH]ccc32)n1 [Example 6, 6-(5-Chloro-thiophen-2-yl)-7H-pyrrolo[3,2-f]quinazoline-1,3-diamine]"
